Source: US20120156311A1, “COMBINATION THERAPY FOR CANCER COMPRISING A PLATINUM-BASED ANTINEOPLASTIC AGENT AND A BIOCOMPATIBLE ELECTRON DONOR” (priority 2009, published 2012)
“Also recorded” adds a separate entry of the source.

Assays:
[1] = test system: HeLa (cervical cancer) cells; experiment: MTT cell survival assay in HeLa cells; type: cell-based, human
Procedure: Thus, appropriate doses of the molecular promoters were selected by initially screening for toxicity. […] The viability of cells was measured by MTT assay, one of the most commonly used cell viability assays. This method involves the conversion of MTT (3-(4,5-dimethylthiazol-2-yl)-2,5-diphenyltetrazolium bromide) to an insoluble formazan by metabolically-active cells (live cells). Using a solubilizing agent, the formazan is dissolved and its absorbance measured, giving indication to the number of cells that survive.
Cells were cultured in 96-well plates (5×10^3 cells/well) for 24 h. The culture medium was replaced by new culture medium and incubated for 24 h with varying drug concentrations. After the drug treatment, cells were replaced with new medium containing 1.2 mM MTT (Sigma) and incubated for 4 h. The medium was then removed and the formazan crystals solubilized by 100 μL DMSO. The surviving fraction was determined by measuring the absorbance at 540 nm using a Multiskan Spectrum UV/Vis microplate reader (Thermo Scientific), which is directly proportional to the number of viable cells.

[2] = test system: NIH-OVCAR-3 (HTB-161) cisplatin-resistant human ovarian cancer cells; experiment: APO-BrdU TUNEL DNA fragmentation assay (flow cytometry) in HTB-161 cells; type: cell-based
Procedure: The method based on terminal deoxyribonucleotidyl transferase (TdT)-mediated dUTP nick-end labelling was used to determine the cell apoptosis. […] DNA fragmentation was measured by using the APO-BrdU TUNEL assay. […] After trypsinized, the cells were washed with PBS, were processed for labeling with the deoxythymidine analog 5-bromo-2′-deoxyuridine 5′-triphosphate (BrdUTP), and were incubated with an Alexa Fluor 488 dye-labeled anti-BrdU antibody and propidium iodide by the use of an APO-BrdU™ TUNEL Assay Kit (Invitrogen) as per manufacturer's protocol. The labeled cells were analyzed by flow cytometry.

[3] = test system: HeLa (cervical cancer) cells; experiment: APO-BrdU TUNEL DNA fragmentation assay (flow cytometry) in HeLa cells; type: cell-based, human; conditions: for cells with DNA fragmentation (BrdU-positive): 48 h
Procedure: DNA fragmentation was detected using a standard apoptosis assay, APO-BrdU TUNEL, which utilizes the fact that DNA strand breaks expose a large number of 3′-OH ends, which act as a starting point for terminal deoxynucleotidyl transferase (TdT) to add deoxyribonucleotides. The break sites are labeled by the addition of BrdUTP in the presence of the TdT enzyme. An anti-BrdU antibody conjugated with a fluorescent molecule is added to detect the strand breaks by measuring their fluorescence intensities using flow cytometry. The cell cycle distribution can also be detected simultaneously from the ordinate axis of the generated dot plot (with the BrdU-content on the y-axis), where the events with fluorescence intensity above the background indicate the cells with fragmented DNA (within upper box).
Cells were cultured in 25 cm^2 flasks (˜8×10^7 cells/flask) for 24 h. The culture medium was replaced by new medium and incubated for 48 h with varying drug concentrations. Both floating and adherent cells were harvested by trypsinization and fixed using 1% paraformaldehyde for 30 minutes. Cells were then permeabilized using 70% ice-cold ethanol for at least 24 h at −20° C. Samples were prepared for DNA fragmentation measurements using the APO-BrdU DNA Fragmentation Assay (Invitrogen). To label the DNA, ethanol was removed and cells were resuspended in 50 μL of TUNEL reaction buffer containing terminal deoxynucleotidyl transferase and BrdUTP for 1 h at 37° C., shaking every 15 min. After overnight room temperature incubation, the cells were then incubated with Alexa Fluor 488-conjugated BrdUTP-antibody for 30 min at room temperature. Cells were also stained with propidium iodide (5 μg/mL) and incubated with RNase A for 30 min at room temperature to determine the total cellular DNA content. Samples were then analyzed by a Becton-Dickinson FACSVantage SE flow cytometer in pulse processing mode (10 000 cells per sample). Computational analyses were performed using FCS Express software (De Novo Software, Los Angeles, Calif.) to obtain FL1-H versus FL2-A dot plots (log versus linear, respectively), gating on front scatter (FSC) versus side scatter (SSC) to eliminate debris, as well as FL2-A versus FL2-W to eliminate doublets. Experiments were performed independently at least 3 times
DNA fragmentation was measured by using the APO-BrdU TUNEL assay.

[4] = test system: NIH-OVCAR-3 (HTB-161) cisplatin-resistant human ovarian cancer cells; experiment: MTT cell viability assay in cisplatin-resistant HTB-161 cells; type: cell-based; conditions: for effect of combination with cisplatin on viability and drug resistance: cisplatin combined with electron donor (100 μM TMPD)
Procedure: Briefly, HTB-161 cells were plated at a density of 7×10^3 cells/well in 96-well plates. […] After incubation for specified times at 37° C. in a humidified incubator, 20 μL of MTT (5 mg/mL in PBS) were added to each well, and cells were incubated for a further 4 h. After removal of the medium, 100 μL DMSO was added to each well. The absorbance was recorded on a microplate reader at the wavelength of 540 nm.

[5] = test system: NIH-OVCAR-3 (HTB-161) cisplatin-resistant human ovarian cancer cells; experiment: Cell cycle analysis by flow cytometry in HTB-161 cells; type: cell-based; conditions: cisplatin alone or with 100 μM TMPD, 24 h
Procedure: HTB-161 cells were plated at a density of 2×10^5 per well on six-well plates. […] The cells were trypsinized, washed twice with chilled PBS, and centrifuged. The cell pellet was resuspended in 70% ethanol at −20° C. overnight. The cells were centrifuged at 1,000 rpm for 5 min; the pellet was washed twice with chilled PBS, suspended in 500 μL PBS, and incubated with RNase (20 μg/mL final concentration) at 25° C. for 30 min and with propidium iodide (50 μg/mL final concentration) for an additional 30 minutes. The cells were analyzed by flow cytometry. Flow cytometry was done with a FACS vantage SE (Becton Dickinson). A minimum of 10,000 cells per sample were counted and the DNA histograms were further analyzed by using FCS Express software for cell cycle analysis.

[6] = test system: Plasmid DNA [pGEM 3Zf(−), 3197 kp]; experiment: Agarose gel electrophoresis of plasmid DNA damage; type: biochemical, Escherichia Coli; conditions: cisplatin alone, up to 3.0 mM
Text: The gel electrophoresis was used for quantitative measurements of plasmid DNA damage, characterizing single-strand breaks (SSBs), double-strand breaks (DBSs) and crosslinks (CLs). We also used the γH2AX DNA damage assay (Invitrogen) to detect DSBs of genomic DNA in cancer cells. Briefly, DNA damaging radicals induce phosphorylation of histone variant H2AX (Ser139) forming DNA foci at the site of DNA DSBs. Phosphorylated H2AX aids in the recruitment of proteins responsible for DSB repair.
Aliquots equivalent to 96 ng DNA were removed from the solutions for gel electrophoresis. All aliquots were analyzed with a standard agarose gel electrophoresis method, namely, on 1% neutral TAE agarose gel in TAE running buffer. The gel was prestained with 1 μg/ml ethidium bromide.

SMILES | toxicity of TMPD alone (cell survival / viability) ([1]; TMPD alone, up to 100 μM) | DNA fragmentation (BrdU positive cells) ([2]; 100 μM TMPD alone) | cells with DNA fragmentation (BrdU-positive) ([3]; 100 μM TMPD alone) | cell viability ([4]; 100 μM TMPD alone) | effect of combination with cisplatin on viability and drug resistance [4] | toxicity of ICG alone (cell survival) ([1]; ICG alone, up to 200 μM) | killing of HeLa cells ([1]; 10 and 20 μM cisplatin alone) | cell survival rates ([1]; CDDP alone, 24 h) | distribution of cells in the cell cycle [5] | DNA strand breaks in plasmid DNA [6] | DNA fragmentation (BrdU positive cells) ([2]; 50 μM cisplatin without or with 100 μM TMPD) | cells with DNA fragmentation (BrdU-positive) ([3]; 10 μM CDDP without or with 100 μM TMPD) | cells with DNA fragmentation (BrdU-positive) ([3]; 25 μM CDDP without or with 100 μM TMPD) | cells with DNA fragmentation (BrdU-positive) ([3]; 50 μM CDDP without or with 100 μM TMPD) | cell cycle arrest ([3]; HeLa cells, CDDP as single agent (lower doses) or with TMPD) | resistance of HTB-161 cells to cisplatin ([4]; cisplatin alone, 200-300 uM)
CN(C)c1ccc(N(C)C)cc1 [TMPD, N,N, N′,N′-tetramethyl-p-phenylene diamine] | very mild toxicity; also recorded: only slightly decreased the cell viability; also recorded: no significant toxicity | 0.04% | 2% | slight decrease of the cell viability | rendered cisplatin-resistant tumor cells almost completely sensitive | – | – | – | – | – | – | – | – | – | – | –
CC1(C)C(/C=C/C=C/C=C/C=C2\N(CCCCS(=O)(=O)[O-])c3ccc4ccccc4c3C2(C)C)=[N+](CCCCS(=O)(=O)[O-])c2ccc3ccccc3c21.[Na+] [ICG, Indocyanine green] | – | – | – | – | rendered cisplatin-resistant tumor cells almost completely sensitive | no significant toxicity | – | – | – | – | – | – | – | – | – | –
N.N.[Cl][Pt][Cl] [cisplatin, cis-diamminedichloroplatinum(II)] | – | – | – | – | – | – | 20% | decreased the cell survival rates in a dose-dependent manner | accumulation of cells in the G1 phase | no SSBs and DSBs but intrastrand cross links only; also recorded: intrastrand cross links only, with no SSBs or DSBs | 3.61% | 9% | 6% | 38% | accumulate in the G2/M phase | strong resistance
